Assay results from article PMC8658016, “Identification of New Compounds with Anticonvulsant and Antinociceptive Properties in a Group of 3-substituted (2,5-dioxo-pyrrolidin-1-yl)(phenyl)-Acetamides” (International Journal of Molecular Sciences, 2021).

Tests used:
rats = experiment: Carrageenan-induced mechanical hyperalgesia; assay type: in vivo, rat; conditions: 80 mg/kg
Excerpt: To test the anti-inflammatory activity and the potential to attenuate inflammatory pain, we tested compound 14 in the model of carrageenan-induced aseptic inflammation. In this model, the subplantar injection of carrageenan induced an edema, mechanical, and thermal hyperalgesia. […] In our opinion, the most surprising and interesting was the long-lasting anti-edematous effect. It may result from the pharmacokinetic properties of compound 14, but also from its unique mechanism. Since inflammation is one of the critical components of neuropathy, the anti-inflammatory activity of compound 14 may be a valuable and distinctive property from classical ASDs used to treat neuropathic pain [33]. […] The pain threshold reached 87.3%, 90.9%, and 89.7% of its initial value 3, 6, and 24 h after carrageenan injection, respectively. […] The initial latency for compound 14-treated animals was 8.95 ± 0.4 s. The administration of compound 14 changed the values to 127.0%, 102.0%, 79.8%, 83.8%, and 164.4% of the initial value 1, 2, 3, 6-, and 24-h following carrageenan injection, respectively.
The experiments were conducted on adult male Albino Swiss mice (CD-1, 18–25 g) and male Wistar rats (Krf:(WI) WU), 180–250 g) as described previously. The minimum number of animals used needed to obtain definite and normally distributed results with the utilized test. Behavioral measures were scored by trained observers, which were blind to experimental conditions. The following devices were used in the experiments: Analgesy Meter (37215, Ugo Basile), Plantar Test Apparatus (EFV5, Commat Ltd., Turkey), Plethysmometer (Plethysmometer 7140, Ugo Basile), Electronic von Frey unit (BIOSEB, France). […]
Figure 8 Effect of compound 14 on carrageenan-induced oedema (A), mechanical hyperalgesia (B), and thermal hyperalgesia (C), developed after subplantar injection of 1% carrageenan in rats. Data are expressed as means ± S.E.M. for 6 animals; 0—the initial value considered as the paw volume (A) or nociceptive reaction (B,C) before carrageenan administration. […]

[1] = tested on: fast voltage-gated sodium currents in rat prefrontal cortex pyramidal neurons; experiment: Patch-clamp, fast voltage-gated sodium currents; assay type: cell-based
Excerpt: Consequently, we determined the influence of compound 14 on the fast activating and fast inactivating voltage-gated sodium currents in rat prefrontal cortex pyramidal neurons using the patch-clamp technique. Maximal currents were evoked by rectangular voltage steps to 0 mV from a physiological holding potential of -65 mV. After recording a stable control, compound 14 was applied to the whole bath for three minutes. […] Therefore, it was very likely that the potent inhibition of sodium currents by compound 14 similar to compound II was one of the mechanisms providing a similar level of anticonvulsant activity. Moreover, the influence of several additional concentrations of compound 14 on voltage-gated sodium currents were tested to confirm the dose–response relationship. In sum, the following concentrations were applied; 0.01 µM, 0.1 µM, 1 µM, 10 µM, and the results obtained were as follows: 0.95 ± 0.05 (p > 0.05, n = 5), 0.84 ± 0.03 (p < 0.05, n = 5), 0.82 ± 0.05 (p < 0.01, n = 5), and 0.77 ± 0.02 (p < 0.01, n = 5), respectively (Figure 9D, currents were normalized to control currents). It is worthy of note that the significant inhibitory effect was observed starting from the concentration of 0.1 µM, whereas no activity was detected at 0.01 µM. Furthermore, a clear dose–response relationship was visible. All the aforementioned results certainly supporting the inhibition of fast voltage-gated sodium currents, seemed to be crucial for the antiseizure activity of compound 14. The methodology of slice preparation, slice preincubation, and patch-clamp technique was the same as in our previous study. In this study, however, we used different recording solutions. The composition of pipette solution was (in mM) CsF (110), NaCl (7), EGTA (3), HEPES-Cl (10), MgCl2 (2), and Na2ATP (4) at pH 7,4. The composition of extracellular solution was (in mM) NaCl (30), choline chloride (90), TEA-Cl (30), CaCl2 (2), MgCl2 (2), glucose (15), HEPES (10), LaCl3 (0.001), and CdCl2 (0.4) at pH 7.4. Compound 14 was tested at concentration of 1 µM.  Figure 9 The influence of compound 14 on fast, voltage-gated sodium current. (A) The influence of tested compound on sodium current is shown on an example neuron. Current traces were evoked once every ten seconds by a rectangular voltage step. […] (B) Example sodium current recordings in control (black trace), after application of compound 14 (1 µM) (blue trace) and after wash-out (red trace). (C) Averaged normalized maximal current amplitudes in control, in the presence of compound 14 (1 µM) and after wash-out. (D) Averaged normalized maximal current amplitudes in control and in the presence of different concentrations of compound 14 (0.01 µM, 0.1 µM, 1 µM, and 10 µM). Statistical significance was analyzed by Graph Pad Prism 8.0.1 software using Tukey post hoc test (C) and Students’ t-test (D). Statistical significance-compared control: * p < 0.05, ** p < 0.01.

For `CN(C)C1CC(=O)N(C(C(=O)N2CCN(c3cccc(C(F)(F)F)c3)CC2)c2ccccc2)C1=O.Cl` (centres unmarked) [Compound 14, 3-(Dimethylamino)-1-(2-oxo-1-phenyl-2-(4-(3-(trifluoromethyl)phenyl)-piperazin-1-yl)ethyl)pyrrolidine-2,5-dione hydrochloride], the “withdrawal threshold, % of the initial reaction (mechanical hyperalgesia)” value (“withdrawal threshold, %” below) (rats; 3 h after carrageenan) was 113.3%, the “withdrawal threshold, %” value (rats; 6 h after carrageenan) was 110.1% and the “withdrawal threshold, %” value (rats; 24 h after carrageenan) was 111.4%. The “maximal sodium current amplitude normalized to control (1.0)” value ([1]; 0.01 µM, p > 0.05, n = 5) was 0.95 ± 0.05, the “maximal sodium current amplitude normalized to control (1.0)” value ([1]; 0.1 µM, p < 0.05, n = 5) was 0.84 ± 0.03 and the “maximal sodium current amplitude normalized to control (1.0)” value ([1]; 1 µM, p < 0.01, n = 5) was 0.82 ± 0.05. The “maximal sodium current amplitude normalized to control (1.0)” value ([1]; 10 µM, p < 0.01, n = 5) was 0.77 ± 0.02 and the “maximal sodium current amplitude normalized to control, after drug wash-out” value ([1]; after application of 1 µM) was 0.92 ± 0.02.
